Some test systems named below: SF-295 CNS; A549 NSCLC; SK-MEL-2 melanoma; MALME-3M melanoma; SK-OV-3 ovarian; 786-0 renal; NCI-H460 lung; SK-MEL-5 melanoma; OVCAR-5 ovarian; OVCAR-3 ovarian; MDA-N.
Test in all cases: NCI-60 cell line screen, 48 h

Several values for one entry are separate records, joined by “and”; a condition that tells them apart may be missing. Equal values may be shown once.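 Assay format: 96-well plates, 48-hour exposure. GI50: concentration for 50% inhibition of growth. TGI denotes the concentration required for complete inhibition of growth.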 Bounds are passed on as bounds.

`CCCN(CCCC(NC(C)=O)C(=O)NCc1ccccc1)C(=O)N(CCCl)N=O` (stereo not drawn): the TGI in the assay on SF-295 CNS is 43.3 µM; with A549 NSCLC, 68.7 µM; in the assay with SK-MEL-2 melanoma, 43.9 µM; with MALME-3M melanoma, 39.7 µM; in the assay on SK-OV-3 ovarian, 63.1 µM; in the assay on 786-0 renal, 19.1 µM. The TGI with NCI-H460 lung is 23.6 µM; in the assay on SK-MEL-5 melanoma it was 37.8 µM; in the assay on OVCAR-5 ovarian it was 64.6 µM; in the assay on OVCAR-3 ovarian it was 53.3 µM; in the assay with MDA-N, more than 100 µM.
In the case of `O=C(/C=C/c1ccc(O)cc1)c1ccc2c(c1)OCO2`, the TGI was 55.5 µM with SF-295 CNS; 44.8 µM in the assay with A549 NSCLC; 62.4 µM in the assay on SK-MEL-2 melanoma; more than 100 µM with MALME-3M melanoma; 82.6 µM with SK-OV-3 ovarian; 57.7 µM in the assay on 786-0 renal. Further, the TGI in the assay on NCI-H460 lung came out at 77.2 µM; in the assay on SK-MEL-5 melanoma, 29.4 µM; in the assay with OVCAR-5 ovarian, 93 µM; with OVCAR-3 ovarian, 41 µM; with MDA-N, 86.1 µM.
Regarding `O=S(=O)(O)c1cc(O)c2c(N=Cc3ccccc3O)cc(S(=O)(=O)O)cc2c1`, the TGI in the assay with SF-295 CNS, in the assay with A549 NSCLC, in the assay on SK-MEL-2 melanoma, in the assay with MALME-3M melanoma, in the assay on SK-OV-3 ovarian and with 786-0 renal was more than 100 µM throughout. The TGI in the assay on NCI-H460 lung, in the assay with SK-MEL-5 melanoma, with OVCAR-5 ovarian, with OVCAR-3 ovarian and in the assay on MDA-N was more than 100 µM in each case.
Turning to `CC(=O)N=C1N(/C=C2\C(=O)Oc3ccccc3C2=O)C(=O)/C(=C/c2ccc(OC(C)=O)cc2)N1C`, the TGI in the assay with SF-295 CNS, with A549 NSCLC, in the assay with SK-MEL-2 melanoma, with MALME-3M melanoma, in the assay on SK-OV-3 ovarian and in the assay with 786-0 renal was more than 100 µM in each case. Moreover, the TGI in the assay on NCI-H460 lung, in the assay with SK-MEL-5 melanoma, with OVCAR-5 ovarian, with OVCAR-3 ovarian and in the assay on MDA-N was more than 100 µM in each case.
On to `COC(=O)C1C/C(=C/N(C)C)C(=S)N1` (stereo not drawn), for which the TGI in the assay with SF-295 CNS, in the assay on A549 NSCLC, with SK-MEL-2 melanoma, in the assay on MALME-3M melanoma, in the assay on SK-OV-3 ovarian and in the assay with 786-0 renal was more than 100 µM each time. The TGI in the assay on NCI-H460 lung was 35.4 µM; with SK-MEL-5 melanoma it was more than 100 µM; with OVCAR-5 ovarian, more than 100 µM; in the assay on OVCAR-3 ovarian it was more than 100 µM; with MDA-N, more than 100 µM.
On to `COC(=O)NCCc1[nH]nc2c1C(=O)C=C(N1CCOCC1)C2=O`, for which the TGI in the assay with SF-295 CNS, in the assay with A549 NSCLC, in the assay with SK-MEL-2 melanoma, in the assay with MALME-3M melanoma, in the assay on SK-OV-3 ovarian and in the assay on 786-0 renal was more than 100 µM each time. Further, the TGI with NCI-H460 lung, in the assay on SK-MEL-5 melanoma, in the assay with OVCAR-5 ovarian, in the assay on OVCAR-3 ovarian and in the assay with MDA-N was more than 100 µM throughout.
For the molecule `COC(=O)[C@@H]1[C@@H](c2cccc(Cl)c2)[C@H](C(=O)OC)C2(C[C@@]1(C)O)NCCS2` (stereo partly drawn), the TGI in the assay on SF-295 CNS is more than 100 µM; in the assay on A549 NSCLC, more than 100 µM; with SK-MEL-2 melanoma it was 94 µM; with MALME-3M melanoma, more than 100 µM; in the assay with SK-OV-3 ovarian, more than 100 µM; with 786-0 renal it was more than 100 µM. Moreover, the TGI with NCI-H460 lung, with SK-MEL-5 melanoma, in the assay on OVCAR-5 ovarian, in the assay on OVCAR-3 ovarian and with MDA-N was more than 100 µM in each case.
As for `N#CCc1n[nH]c(Cc2ccccc2)n1`, the TGI with SF-295 CNS, in the assay on A549 NSCLC, in the assay on SK-MEL-2 melanoma, in the assay with MALME-3M melanoma, in the assay on SK-OV-3 ovarian and in the assay on 786-0 renal was more than 100 µM each time. For the same molecule, the TGI in the assay with NCI-H460 lung, in the assay on SK-MEL-5 melanoma, in the assay with OVCAR-5 ovarian, in the assay with OVCAR-3 ovarian and with MDA-N was more than 100 µM throughout.
On to `COc1ccc2c(CCN)c(C(=O)O)[nH]c2c1`, for which the TGI in the assay with SF-295 CNS, in the assay on A549 NSCLC, in the assay on SK-MEL-2 melanoma, with MALME-3M melanoma, in the assay on SK-OV-3 ovarian and in the assay with 786-0 renal was more than 100 µM each time. Also, the TGI with NCI-H460 lung, in the assay with SK-MEL-5 melanoma, in the assay on OVCAR-5 ovarian, with OVCAR-3 ovarian and in the assay on MDA-N was more than 100 µM throughout.
With `COC(=O)C1=C(C(=O)OC)C(C(=O)c2ccc(Br)cc2)N2N=C(c3ccc(Cl)cc3)C=CC12` (stereo not drawn), the TGI with SF-295 CNS, with A549 NSCLC, in the assay on SK-MEL-2 melanoma, in the assay with MALME-3M melanoma, in the assay with SK-OV-3 ovarian and in the assay on 786-0 renal was more than 100 µM throughout. Moreover, the TGI in the assay on NCI-H460 lung, in the assay on SK-MEL-5 melanoma, in the assay on OVCAR-5 ovarian, in the assay with OVCAR-3 ovarian and in the assay on MDA-N was more than 100 µM in each case.
`CN(C)CCNC(=O)c1cccc2c(NCCN(C)C)c3ccccc3nc12`: the TGI in the assay with SF-295 CNS was found to be 17.6 µM; in the assay on A549 NSCLC it was 6.05 µM; with SK-MEL-2 melanoma it was 17.6 µM; with MALME-3M melanoma, 15.4 µM; in the assay on SK-OV-3 ovarian it was 40.2 µM; with 786-0 renal it was 6.65 µM. Also, the TGI was 3.91 µM in the assay on NCI-H460 lung; 13.6 µM with SK-MEL-5 melanoma; 11.1 µM in the assay on OVCAR-5 ovarian; 7.63 µM in the assay with OVCAR-3 ovarian; 8.18 µM in the assay on MDA-N.
As for `CC(=O)OC(/C=C/c1ccccc1)P1(=O)N(CC(C)(C)C)[C@@H]2CCCC[C@H]2N1CC(C)(C)C` (stereo partly drawn), the TGI is 25.4 µM and 14.9 µM in the assay with SF-295 CNS; 17.3 µM and 18.5 µM with A549 NSCLC; 24.3 µM and 18.5 µM with SK-MEL-2 melanoma; 26.8 µM and 26.4 µM in the assay with MALME-3M melanoma; 37.4 µM and 25.7 µM with SK-OV-3 ovarian; 21.4 µM and 21.1 µM in the assay with 786-0 renal. In addition, the TGI is 21.1 µM and 19 µM in the assay on NCI-H460 lung; 17.4 µM and 18.7 µM in the assay with SK-MEL-5 melanoma; 23.4 µM and 23.5 µM with OVCAR-5 ovarian; 25.4 µM and 17.1 µM in the assay on OVCAR-3 ovarian; 23.1 µM and 21 µM with MDA-N. Further, the GI50 in the assay with OVCAR-3 ovarian was 8.41 µM and 3.47 µM.

The record behind these values is PubChem BioAssay (NCI).
